Here are results for one compound from patent US7732435B2, “Chromone derivatives useful as antagonists of VR1 receptors” (Novartis AG, priority 2005, dated 2010).

As usually defined, the IC50 is the point on the concentration scale where inhibition reaches its midpoint.

Where two headings read alike, the source gives them in different places.

This assay has as its target TRPV1 receptor (UniProt Q8NER1). Nature of the assay: Calcium mobilisation assay in CHO-K1 cells expressing the TRPV1 receptor (inhibition of capsaicin or low pH activation). It counts as cell-based, human, rat or guinea pig. To be noted: species not specified. As to the method:
Chinese Hamster Ovary-K1 (CHO-K1) cells, transfected to express either the human, rat or guinea pig TRPV1 receptor, were grown in Minimal Essential Media (MEM) alpha medium without nucleosides supplemented with fetal calf serum (10%), 2 mM L-glutamine, 100 IU/mL penicillin, 100 μg/ml streptomycin and 350-700 μg/ml geneticin. All reagents were supplied by Invitrogen. Cells were grown in T-175 flasks or Costar black, clear-bottomed 96-well view plates and maintained at 37° C. in a 90% humidified incubator with an atmosphere of 5% CO2 and 95% air. The cells were passaged twice a week at a ratio of 1:10 to 1:20 to maintain steady growth. For experimentation, cells were harvested at approximately 80% confluency and plated onto view plates at 40,000 cells per well in 100 μL media and grown overnight.
Calcium Mobilisation Assay […]
On the technique in general: Calcium assays in cells follow changes in intracellular calcium, usually with a dye or a luminescent sensor.

Turning to `CC(C)c1oc2c(ccc3[nH]c(C(C)(F)F)nc32)c(=O)c1-c1ccc(Cl)cc1` [Example 8, 7-(4-Chlorophenyl)-2-(1,1-difluoroethyl)-8-isopropyl-3H-chromeno[7,8-d]imidazol-6-one], the IC50 is 0.068 µM (TRPV1 stimulated by capsaicin at EC80 concentration, read-out: IC50 (capsacin)) and 0.054 µM (TRPV1 stimulated by low pH, final pH 5.5, read-out: IC50 (pH 5.5)).
